Laboratory results published in article PMC9361549, “High-affinity SOAT1 ligands remodeled cholesterol metabolism program to inhibit tumor growth” (BMC Medicine, 2022).
Blank lines part the entries; values can stand above or below the molecule they belong to.

Legend:
[1] = target: T1, SOAT1 (Homo sapiens, UniProt P35610); test: SPR (Biacore T200, CM5 chip, immobilised SOAT1); assay type: binding; details: PBS running buffer with 5% DMSO; 0.0195 nM to 20 μM
T1 sequence (P35610 1-550): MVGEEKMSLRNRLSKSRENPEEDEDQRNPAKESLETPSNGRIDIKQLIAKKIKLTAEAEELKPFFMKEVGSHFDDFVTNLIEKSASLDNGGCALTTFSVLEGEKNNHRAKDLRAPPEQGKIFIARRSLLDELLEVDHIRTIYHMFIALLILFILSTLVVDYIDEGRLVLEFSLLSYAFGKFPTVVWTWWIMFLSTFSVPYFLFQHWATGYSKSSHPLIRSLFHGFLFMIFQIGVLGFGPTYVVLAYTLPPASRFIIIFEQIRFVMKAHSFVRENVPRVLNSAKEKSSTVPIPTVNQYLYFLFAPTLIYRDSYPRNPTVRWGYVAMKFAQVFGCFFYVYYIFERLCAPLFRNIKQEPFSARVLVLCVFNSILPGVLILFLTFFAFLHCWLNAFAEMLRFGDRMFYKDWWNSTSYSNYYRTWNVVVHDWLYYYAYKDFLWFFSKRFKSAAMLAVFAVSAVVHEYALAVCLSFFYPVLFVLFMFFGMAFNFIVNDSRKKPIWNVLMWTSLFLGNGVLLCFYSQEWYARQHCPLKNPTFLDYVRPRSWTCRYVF

[2] = target: T1, SOAT1; test: SPR single-concentration screen (Biacore T200, CM5 chip, immobilised SOAT1); assay type: binding; details: 100 nmol/L compound; PBS with 5% DMSO; positive control
[3] = target: the molecule itself; test: SEC; Superdex 200 10/300 GL in 25 mM Tris pH 8.0, 150 mM NaCl, 0.02% GDN, after nickel affinity purification; fractions checked by SDS-PAGE

KD [1]: 3.91 E^−6 M
Molecule: Cc1cc(C)c2c(c1)[C@@H](N(Cc1cc(C(F)(F)F)cc(C(F)(F)F)c1)c1nnn(C)n1)CCCN2C[C@H]1CC[C@H](C(=O)O)CC1 [evacetrapib]

KD [1]: 2.02E^−7 M
Molecule: Cc1cn(-c2cc(NC(=O)c3ccc(C)c(Nc4nccc(-c5cccnc5)n4)c3)cc(C(F)(F)F)c2)cn1 [nilotinib]

KD [1]: 7.19 E^−7 M
Molecule: CN(C)CC[C@H](CSc1ccccc1)Nc1ccc(S(=O)(=O)NC(=O)c2ccc(N3CCN(Cc4ccccc4-c4ccc(Cl)cc4)CC3)cc2)cc1[N+](=O)[O-] [ABT-737]

The remaining lines, values behind:

Molecule: CCCCCCCCCCC(C)(C)C(=O)Nc1c(OC)cc(OC)cc1OC [CI-976]
SPR single-concentration screen (Biacore T200, CM5 chip, immobilised SOAT1) [2]: including three positive controls: avasimibe, nevanimibe, and CI-976

Molecule: CC(C)c1cc(C(C)C)c(CC(=O)NS(=O)(=O)Oc2c(C(C)C)cccc2C(C)C)c(C(C)C)c1 [avasimibe]
SPR single-concentration screen (Biacore T200, CM5 chip, immobilised SOAT1) [2]: including three positive controls: avasimibe, nevanimibe, and CI-976

B1: sterol O-acyltransferase 1 (SOAT1), human, with a carboxy-terminal 6xHis-tag (enzyme, UniProt P35610-1 1-550, looked up)
chain: T1 sequence (P35610 1-550)
notes: sterol O-acyltransferase 1 (SOAT1), human; NCBI ID 6646) cloned into pCAG; no removal of the His-tag is described; also called SOAT1 protein
stoichiometry N [3]: 2
